This note sets out measurements from patent US11149047B2, “Aryl imidazoles for treatment of cancer” (Aptose Biosciences Inc., priority 2017, dated 2021).

The test system of one series is KG-1 AML cells. Description: Uptake and efflux assay by mass spectrometry. In kind it is in vitro ADME. To be noted: exposed 1 or 6 hours, then drug-free media. As for the experimental part: Cells exposed to COMPOUND I were homogenized in acetonitrile containing 5 ng of deuterated COMPOUND I standard. Samples were analyzed at the UCSD Molecular Mass Spectrometry Facility employing an Agilent 1260 liquid chromatograph (LC) system coupled with a Thermo LCQdeca mass spectrometer using positive ion mode electrospray ionization as the ion source.
Measurement of the kinetics of uptake and efflux of COMPOUND I in KG-1 AML cells determined by mass spectrometry indicated a gradual approach to steady state and a rapid initial efflux, but a very prolonged terminal efflux (FIGS. 20A and 20B). When KG-1 cells were exposed to COMPOUND I for either 1 or 6 hours and then placed in drug-free media, the efflux pattern consisted of a rapid phase occurring during the first 30 minutes followed by a prolonged terminal phase, such that significant amounts of COMPOUND I were retained in KG-1 cells for longer than 24 hours. […] (FIGS. 20C and 20D).

Another series has as its system Raji cells. Description: Cellular pharmacology: intracellular accumulation and efflux by LC-MS/MS. The format is in vitro ADME, human. As for the experimental part: Cells exposed to COMPOUND I or Fe(COMPOUND I)3 were homogenized in acetonitrile containing 5 ng of a deuterated COMPOUND I standard. Samples were analyzed at the UCSD Molecular Mass Spectrometry Facility employing an Agilent 1260 liquid chromatograph (LC) system coupled with a Thermo LCQdeca mass spectrometer using positive ion mode electrospray ionization (ESI) as the ion source. The ESI ion source voltage was set at 5 kV, with sheath gas flow rate of 80 units, auxiliary gas flow rate of 20 units, and capillary temperature of 250° C., respectively. A Phenomenex Kinetex Biphenyl column (ID 2.1 mm×length 50 mm, particle size 2.6 μm) was utilized for LC separation using water with 0.1% formic acid as the mobile phase A and acetonitrile with 0.1% formic acid as the mobile phase B. The LC flow rate was set at 0.30 mL/min. The LC gradient increased from 5% mobile phase B to 95% mobile phase B in 10 minutes, held at 95% B for 2 minutes, returned to 5% B in 1 minute, and then held at 5% B for 6 minutes. […] Selected reaction monitoring (SRM) mode was used to acquire the m/z 353 and m/z 359 fragmental peaks. The SRM peak area ratio (COMPOUND I/COMPOUND I-d6) related to the amount of spiked COMPOUND I-d6 was used for the quantification of COMPOUND I and Fe(COMPOUND I)3 in the samples. The same column, gradient and flow rate were used for detection of Fe(COMPOUND I)3 which was detected using an Agilent 1100 HPLC and Orbitrap XL (Thermo) mass spectrometer employing a Thermo IonMax ESI interface. The Fe(COMPOUND I)3 eluted around 11.5 minutes with these conditions. A 10:1 flow split was used for the eluent flow rate of 0.3 mL/min, so that approximately 0.030 mL/min was introduced into the ESI after the split. […]
For this reason, Raji Burkitt's lymphoma cells were selected for study of the cellular pharmacology of COMPOUND I. The intracellular accumulation of COMPOUND I in the Raji cells was quantified by liquid chromatography tandem mass spectroscopy (LC-MS/MS). […]

Series [1] deals with MYC mRNA stability in EOL-1 cells. Description: RNA decay assay. The format is cell-based. To be noted: 500 nmol/L 3 hours, then 1 μmol/L actinomycin D. As for the experimental part: Cells were treated for 3 hours with vehicle DMSO or 500 nmol/L COMPOUND I followed by 1 μmol/L actinomycin D. Aliquots of cells were taken before and then every 10 minutes after actinomycin D addition for RNA extraction and cDNA synthesis as for qRT-PCR analysis. Levels of MYC and 28s rRNA were analyzed using specific primers (Table 8) and MYC RNA expression was normalized to 28 s rRNA [2^(28 s Ct value−MYC Ct value)].
Regulation of MYC expression is a complex process that involves MYC transcription, mRNA stability, and protein turnover. ChIP-qPCR analysis for H3K27ac, a well-established marker of active chromatin, was performed to assess transcriptional competency of the MYC gene promoter after treatment with COMPOUND I (FIG. 19D). […] To determine whether COMPOUND I affected MYC mRNA stability, an RNA decay assay was performed on EOL-1 cells.

The structures appear in SMILES notation.

Take `Cc1[nH]c2ccc(F)cc2c1-c1nc2c3cccnc3c3ncccc3c2[nH]1` [COMPOUND I, 2-(5-fluoro-2-methyl-1H-indol-3-yl)-1H-imidazo[4,5-f][1,10]phenanthroline]: in the series with KG-1 AML cells, the “duration of rapid efflux phase” value amounted to 30 min and the “retention of significant amounts in cells” value was more than 24 h. Moreover, the “time at which cellular content approaches steady-state” value with Raji cells (Raji cells, FIG. 6A) is reported as approximately 6 h. The “Rate of efflux over first 2 hours” value in the series on Raji cells (Raji cells, mean ± SEM, n = 6) is −0.19 ± 0.025 log fmole/10^7 cells/h. For the same compound, the “intracellular Zn chelate” value in the series on Raji cells (cells exposed to COMPOUND I) is given as “a Zn chelate was not detectable”. In addition, the “MYC mRNA levels in pretreated cells versus vehicle” value in series [1] was “clear decrease in MYC mRNA levels”.
